From patent publication US20010038824A1, “Intranasal cyclic peptide formulations” (priority 2000, published 2001)
Numbered stars: 1 amine (or outer) side, 2 acyl side, 3 side chain; on linkers, the order of the positions; unused ones are H or OH. Bridge positions count the residues as written; N and C are the ends. Square brackets hold non-standard residues; d marks the D form. Peptide text beside a SMILES is read from it. * marks the point of attachment. ξ: configuration not given here. pTerphenylCO(4''-OnC5H11) = CCCCCOc1ccc(-c2ccc(-c3ccc(C(=O)*)cc3)cc2)cc1; Orn(4R-OH,5R-OH) = O=C([C@H](C[C@@H](O)[C@@H](O)N[*:3])N[*:1])[*:2]; X9 = O=C(C[C@@H](CCc1ccc(-c2ccc(OCCCc3ccccc3)cc2)cc1)N[*:2])[*:1]; hTyr(3S-OH,4S-OH) = N[C@H](C(=O)O)[C@H](O)[C@@H](O)c1ccc(O)cc1; X11 = CCCCCOc1ccc(-c2ccc(CC[C@H](CC(=O)[*:1])N[*:2])cc2)cc1; X6 = NCCC[C@H](N)C(=O)N(CCCN)CCCC(N[*:1])C(=O)[*:2]; Pro(3S-OH,4S-Me) = C[C@H]1CN[C@H](C(=O)O)[C@H]1O; X7 = CCCCCCCCCCCCC(C)[C@H](CC(=O)[*:1])O[*:2]; X4 = CCCCCCCCCCCCC[C@H](CC(=O)[*:1])O[*:2]; X2 = NC(=O)CC(O)C(N[*:1])C(=O)[*:2]; ξDopa = NC(Cc1ccc(O)c(O)c1)C(=O)O; Hyp = O=C(O)[C@@H]1C[C@@H](O)CN1; X1 = O=C(C1C(O)CCN1[*:1])[*:2]; ξY = NC(Cc1ccc(O)cc1)C(=O)O; ξHyp = O=C(O)C1CC(O)CN1; ξOrn = NCCCC(N)C(=O)O; ξT = CC(O)C(N)C(=O)O; ξV = CC(C)C(N)C(=O)O; ξA = CC(N)C(=O)O

Key:
[1] = Toxicity on administration to mice for 4 weeks; assay type: in vivo; details: 5 mg/kg and 30 mg/kg to mice for 4 weeks
Candida albicans CY1002 = test: In vitro antifungal activity, broth micro-dilution; assay type: cell-based; details: YNB medium, 1-2 days at 35° C.
Description: (§1) The in vitro antifungal activities of the representative Aerothricins of the present study were evaluated by determining the 50% inhibitory concentration (IC50), which was calculated as the lowest concentration of an antifungal to inhibit the growth of fungus to […] turbidity compared with the drug-free control growth spectrophotometrically.
(§2) The IC50 values were determined by the broth micro-dilution procedure based on NCCLS Approved Standard with the following minor modifications (National Committee for Clinical Laboratory Standards. (1997) Reference method for broth dilution antifungal susceptibility testing for yeasts. Approved standard. Document M27-A). Yeast Nitrogen Base (YNB; Difco Lab.) supplemented with 1% glucose and 0.25% K2HPO4 was used as testing medium for yeast, the same medium solidified with 0.2% low melting point agarose (BRL) was used for filamentous fungi. Inoculum size was 1-3×10^4 cells/ml, and incubation was performed for 1-2 days at 35° C.

[2] = test system: Aspegillus fumigatus CF1003; test: In vitro antifungal activity, broth micro-dilution; assay type: cell-based; details: YNB medium with 0.2% agarose, 1-2 days at 35° C.
Description: as §1, §2

Fusarium solani CF1088 = test: In vitro antifungal activity, broth micro-dilution; assay type: cell-based; details: YNB medium with 0.2% agarose, 1-2 days at 35° C.
Description: as §1, §2

Candida albicans = test: Murine systemic candidiasis; assay type: in vivo, mice; details: i.v., b.i.d×1 day followed by q.d.×2 days; survival on day 14
Description: Mice of a conventional immunocompetent mouse strain, Crj: CD-1 (ICR) were used for experimental infection models of systemic candidiasis. 4 weeks old Crj: CD-1 (ICR) mice were used for systemic candidiasis by injecting Candida albicans 5×10^6 conidia/mouse via the tail vein. Treatments were given twice (0, 4 h after infection) on the first day and once daily on following 2 days for systemic candidiasis (b.i.d×1 day followed by q.d.×2 days), intravenously (i.v.). 50% of effective dose (ED50) values was calculated from the survival number at each dose on day 14.

mouse hepatocytes = test: In vitro hepatotoxicity test; assay type: cell-based; details: mouse hepatocyte monolayers, 1 day exposure, morphological evaluation
From the text: The mouse hepatocytes were isolated by a collagenase digestion and cultured in microtest plates. The hepatocyte monolayers were exposed to the test Aerothricins in the culture system for 1 day. After the culture period, the hepatocytes were observed under a microscope and evaluated morphologically. The degree of the morphological alteration (degeneration) of the hepatocytes by the test Aerothricins were compared with WF11243 and LY303366.

CCCCCCCCCCCCC(C)[C@@H]1CC(=O)NC(C(C)O)C(=O)NC(C)C(=O)NC(Cc2ccc(O)cc2)C(=O)NC(C(C)C)C(=O)N2CC(O)CC2C(=O)NC(C(C)O)C(=O)NC(C(C)O)C(=O)N2CCC(O)C2C(=O)NC(C(O)CC(N)=O)C(=O)NCC(=O)NC(C(C)O)C(=O)NC(CCCN)C(=O)O1 (stereo partly drawn) [Aerothricin 1] ([ξT][ξA][ξY][ξV][ξHyp][ξT][ξT][X1][X2]G[ξT][ξOrn]; linker N-C via X7)
Solubility (Solubility): Soluble: water, methanol, dimethylsulfoxide
acute toxicity [1]: no acute toxicity
In vitro Antifungal activity, IC50, Candida albicans CY1002 (Candida albicans CY1002): 0.03 µg/mL
In vitro Antifungal activity, IC50, Aspegillus fumigatus CF1003 [2]: 0.06 µg/mL
In vitro Antifungal activity, IC50, Fusarium solani CF1088 (Fusarium solani CF1088): 0.21 µg/mL

CCCCCCCCCCOc1ccc(CC[C@@H]2CC(=O)NC(C(C)O)C(=O)NC(C)C(=O)NC(Cc3ccc(O)cc3)C(=O)NC(C(C)C)C(=O)N3CC(O)CC3C(=O)NC(C(C)O)C(=O)NC(C(C)O)C(=O)N3CCC(O)C3C(=O)NC(C(O)CC(N)=O)C(=O)NCC(=O)NC(C(C)O)C(=O)NC(CCCN)C(=O)N2)cc1 (stereo partly drawn) [Aerothricin 36]
In vivo antifungal activity against systemic candidiasis in mice, ED50 on day 14 (Candida albicans): 0.6 mg/kg
In vitro Antifungal activity, IC50, Candida albicans CY1002 (Candida albicans CY1002): 0.08 µg/mL
In vitro Antifungal activity, IC50, Aspegillus fumigatus CF1003 [2]: 0.05 µg/mL
In vitro Antifungal activity, IC50, Fusarium solani CF1088 (Fusarium solani CF1088): 1.00 µg/mL

CC1NC(=O)C(C(C)O)NC(=O)C[C@@H](CCc2ccc(-c3ccc(OCCCc4ccccc4)cc3)cc2)NC(=O)C(CCCN)NC(=O)C(C(C)O)NC(=O)CNC(=O)C(C(O)CC(N)=O)NC(=O)C2C(O)CCN2C(=O)C(C(C)O)NC(=O)C(C(C)O)NC(=O)C2CC(O)CN2C(=O)C(C(C)C)NC(=O)C(Cc2ccc(O)cc2)NC1=O (stereo partly drawn) [Aerothricin 46] ([ξT][ξA][ξY][ξV][ξHyp][ξT][ξT][X1][X2]G[ξT][ξOrn]; linker N-C via X9)
In vivo antifungal activity against systemic candidiasis in mice, ED50 on day 14 (Candida albicans): 0.4 mg/kg
In vitro Antifungal activity, IC50, Candida albicans CY1002 (Candida albicans CY1002): 0.09 µg/mL
In vitro Antifungal activity, IC50, Aspegillus fumigatus CF1003 [2]: 0.08 µg/mL
In vitro Antifungal activity, IC50, Fusarium solani CF1088 (Fusarium solani CF1088): 1.80 µg/mL

CCCCCCCCCCCCC[C@@H]1CC(=O)NC(C(C)O)C(=O)NC(C)C(=O)NC(Cc2ccc(OC)cc2)C(=O)NC(C(C)C)C(=O)N2CC(O)CC2C(=O)NC(C(C)O)C(=O)NC(C(C)O)C(=O)N2CCC(O)C2C(=O)NC(C(O)CC(N)=O)C(=O)NCC(=O)NC(C(C)O)C(=O)NC(CCCN)C(=O)O1 (stereo partly drawn) [Aerothricin 5] ([ξT][ξA][ξY](Me)[ξV][ξHyp][ξT][ξT][X1][X2]G[ξT][ξOrn]; linker N-C via X4)
In vivo antifungal activity against systemic candidiasis in mice, ED50 on day 14 (Candida albicans): 0.3 mg/kg
In vitro Antifungal activity, IC50, Candida albicans CY1002 (Candida albicans CY1002): 0.03 µg/mL
In vitro Antifungal activity, IC50, Aspegillus fumigatus CF1003 [2]: 0.07 µg/mL
In vitro Antifungal activity, IC50, Fusarium solani CF1088 (Fusarium solani CF1088): 0.19 µg/mL

CCCCCCCCCCCCC[C@@H]1CC(=O)NC(C(C)O)C(=O)NC(C)C(=O)NC(Cc2ccc(O)cc2)C(=O)NC(C(C)C)C(=O)N2CC(O)CC2C(=O)NC(C(C)O)C(=O)NC(C(C)O)C(=O)N2CCC(O)C2C(=O)NC(C(O)CC(N)=O)C(=O)NCC(=O)NC(C(C)O)C(=O)NC(CCCN(CCCN)C(=O)[C@@H](N)CCCN)C(=O)O1 (stereo partly drawn) [Aerothricin 132] ([ξT][ξA][ξY][ξV][ξHyp][ξT][ξT][X1][X2]G[ξT][X6]; linker N-C via X4)
Cytotoxicity to hepatocyte (mouse hepatocytes): >100 µg/mL
In vitro Antifungal activity, IC50, Candida albicans CY1002 (Candida albicans CY1002): 0.30 µg/mL
In vitro Antifungal activity, IC50, Aspegillus fumigatus CF1003 [2]: 0.10 µg/mL
In vitro Antifungal activity, IC50, Fusarium solani CF1088 (Fusarium solani CF1088): 0.19 µg/mL

CCCCCCCCCCCCC[C@@H]1CC(=O)NC(C(C)O)C(=O)NC(C)C(=O)NC(Cc2ccc(O)c(O)c2)C(=O)NC(C(C)C)C(=O)N2CC(O)CC2C(=O)NC(C(C)O)C(=O)NC(C(C)O)C(=O)N2CCC(O)C2C(=O)NC(C(O)CC(N)=O)C(=O)NCC(=O)NC(C(C)O)C(=O)NC(CCCN)C(=O)O1 (stereo partly drawn) [Aerothricin 2] ([ξT][ξA][ξDopa][ξV][ξHyp][ξT][ξT][X1][X2]G[ξT][ξOrn]; linker N-C via X4)
Solubility (Solubility): Soluble: water, methanol, dimethylsulfoxide

CCCCCOc1ccc(-c2ccc(-c3ccc(C(=O)N[C@H]4C[C@@H](O)[C@@H](O)NC(=O)[C@@H]5[C@@H](O)[C@@H](C)CN5C(=O)[C@H]([C@@H](C)O)NC(=O)[C@H]([C@H](O)[C@@H](O)c5ccc(O)cc5)NC(=O)[C@@H]5C[C@@H](O)CN5C(=O)[C@H]([C@@H](C)O)NC4=O)cc3)cc2)cc1 [LY303366, reference compound] ({pTerphenylCO(4''-OnC5H11)}-[Orn(4R-OH,5R-OH)]T[Hyp][hTyr(3S-OH,4S-OH)]T[Pro(3S-OH,4S-Me)]; lactam 1-C)
Cytotoxicity to hepatocyte (mouse hepatocytes): 10 µg/mL

CCCCCOc1ccc(-c2ccc(CC[C@@H]3CC(=O)NC(C(C)O)C(=O)NC(C)C(=O)NC(Cc4ccc(O)cc4)C(=O)NC(C(C)C)C(=O)N4CC(O)CC4C(=O)NC(C(C)O)C(=O)NC(C(C)O)C(=O)N4CCC(O)C4C(=O)NC(C(O)CC(N)=O)C(=O)NCC(=O)NC(C(C)O)C(=O)NC(CCCN)C(=O)N3)cc2)cc1 (stereo partly drawn) [Aerothricin 41] ([ξT][ξA][ξY][ξV][ξHyp][ξT][ξT][X1][X2]G[ξT][ξOrn]; linker N-C via X11)
In vivo antifungal activity against systemic candidiasis in mice, ED50 on day 14 (Candida albicans): 0.3 mg/kg
In vitro Antifungal activity, IC50, Candida albicans CY1002 (Candida albicans CY1002): 0.08 µg/mL
In vitro Antifungal activity, IC50, Aspegillus fumigatus CF1003 [2]: 0.03 µg/mL
In vitro Antifungal activity, IC50, Fusarium solani CF1088 (Fusarium solani CF1088): 2.40 µg/mL
